{
  "source": "patent US20230101335A1",
  "about": "“EX VIVO TISSUE EXPLANT AND GRAFT PLATFORM AND USES THEREOF” (Massachusetts Institute of Technology, priority 2021, published 2023)",
  "key": {"[1]": {"tested_on": "CRC organoids engrafted in swine small intestine tissue", "assay": "ex vivo CRC organoid-in-intestine platform, GFP+ tumor cells by flow cytometry", "type": "cell-based", "conditions": "for IC50: System: Tissue (pig ex vivo colorectal cancer platform), 24 hours drug treatment"}, "Caco2 cells": {"tested_on": "Caco2 cells", "assay": "CellTiter-Glo Luminescent cell viability assay", "type": "cell-based", "conditions": "Homo sapiens, Caco-2; System: Cell (Caco2)"}, "HT29 cells": {"tested_on": "HT29 cells", "assay": "CellTiter-Glo Luminescent cell viability assay", "type": "cell-based", "conditions": "Homo sapiens, HT-29; System: Cell (HT29)"}, "Colo320DM cells": {"tested_on": "Colo320DM cells", "assay": "CellTiter-Glo Luminescent cell viability assay", "type": "cell-based", "conditions": "System: Cell (Colo320DM)"}, "HCT15 cells": {"tested_on": "HCT15 cells", "assay": "CellTiter-Glo Luminescent cell viability assay", "type": "cell-based", "conditions": "System: Cell (HCT15)"}, "[2]": {"tested_on": "CRC organoids (APC−/TP53−/SMAD4− triple knockout)", "assay": "CellTiter-Glo cytotoxicity assay on CRISPR-engineered CRC organoids", "conditions": "read-out: IC50 (uM) ± SD"}, "P-gp": {"target": "P-gp (Homo sapiens, UniProt P08183)", "sequence (P08183 whole entry)": "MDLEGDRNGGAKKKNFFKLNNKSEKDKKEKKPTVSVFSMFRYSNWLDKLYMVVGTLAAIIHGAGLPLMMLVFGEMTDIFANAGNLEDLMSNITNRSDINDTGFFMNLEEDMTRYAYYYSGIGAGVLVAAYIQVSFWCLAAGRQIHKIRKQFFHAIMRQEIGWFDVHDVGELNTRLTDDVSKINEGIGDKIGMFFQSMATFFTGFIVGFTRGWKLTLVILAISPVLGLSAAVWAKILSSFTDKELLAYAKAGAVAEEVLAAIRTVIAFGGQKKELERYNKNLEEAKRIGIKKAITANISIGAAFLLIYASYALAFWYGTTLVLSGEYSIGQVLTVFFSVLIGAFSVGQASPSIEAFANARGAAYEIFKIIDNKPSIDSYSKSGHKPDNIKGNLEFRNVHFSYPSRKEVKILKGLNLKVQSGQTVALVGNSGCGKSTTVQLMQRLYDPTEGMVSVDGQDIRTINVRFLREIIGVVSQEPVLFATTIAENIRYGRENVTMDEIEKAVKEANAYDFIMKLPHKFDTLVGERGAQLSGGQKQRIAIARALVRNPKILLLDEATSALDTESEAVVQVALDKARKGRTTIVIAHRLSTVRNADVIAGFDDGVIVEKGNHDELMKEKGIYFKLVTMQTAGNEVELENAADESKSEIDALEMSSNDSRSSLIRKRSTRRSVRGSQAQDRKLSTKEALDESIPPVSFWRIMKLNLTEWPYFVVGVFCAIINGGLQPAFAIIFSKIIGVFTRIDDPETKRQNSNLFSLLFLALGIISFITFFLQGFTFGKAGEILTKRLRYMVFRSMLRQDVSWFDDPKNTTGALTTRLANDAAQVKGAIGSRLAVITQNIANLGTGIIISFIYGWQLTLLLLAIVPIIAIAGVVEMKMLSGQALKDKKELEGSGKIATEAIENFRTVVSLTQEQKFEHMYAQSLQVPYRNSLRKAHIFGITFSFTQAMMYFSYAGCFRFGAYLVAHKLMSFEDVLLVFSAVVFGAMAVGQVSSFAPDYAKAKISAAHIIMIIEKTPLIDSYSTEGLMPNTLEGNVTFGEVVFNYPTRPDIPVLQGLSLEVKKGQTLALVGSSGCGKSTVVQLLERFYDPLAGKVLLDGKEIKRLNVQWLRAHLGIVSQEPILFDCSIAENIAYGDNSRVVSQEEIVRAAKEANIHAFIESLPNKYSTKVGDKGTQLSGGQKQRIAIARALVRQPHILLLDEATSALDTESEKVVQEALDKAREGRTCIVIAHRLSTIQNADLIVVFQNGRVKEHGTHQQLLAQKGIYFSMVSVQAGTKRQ", "conditions": "previous work; cited from earlier work"}},
  "note": "Like-named read-outs stand apart in the source and are kept apart here.",
  "data": [
    {"compound": "COc1cccc2c1C(=O)c1c(O)c3c(c(O)c1C2=O)C[C@@](O)(C(=O)CO)C[C@@H]3O[C@H]1C[C@H](N)[C@H](O)[C@H](C)O1", "note": "[Doxirubicine, doxorubicin]", "values": [
      {"measurement": "IC50", "setting": "[1]; Sus scrofa", "value": "0.739 ± 0.082", "unit": "µM"},
      {"measurement": "IC50", "setting": "Caco2 cells", "value": "2.85 ± 0.712", "unit": "µM"},
      {"measurement": "IC50", "setting": "HT29 cells", "value": "3.88 ± 2.13", "unit": "µM"},
      {"measurement": "IC50", "setting": "Colo320DM cells; Homo sapiens, COLO 320DM", "value": "6.99 ± 1.23", "unit": "µM"},
      {"measurement": "IC50", "setting": "HCT15 cells; Homo sapiens, HCT-15", "value": "1.51 ± 0.226", "unit": "µM"},
      {"measurement": "IC50", "setting": "[2]; Sus scrofa", "value": "10.1 ± 2.33", "unit": "µM"}
    ]},
    {"compound": "O=C1[O][Pt]2([NH][C@@H]3CCCC[C@H]3[NH]2)[O]C1=O", "note": "[Oxiliplatin, oxaliplatin]", "values": [
      {"measurement": "IC50", "setting": "[1]", "value": "8.61 ± 3.38", "unit": "µM"},
      {"measurement": "IC50", "setting": "Colo320DM cells", "value": "10.5 ± 1.71", "unit": "µM"},
      {"measurement": "IC50", "setting": "HCT15 cells", "value": "15.5 ± 4.99", "unit": "µM"},
      {"measurement": "IC50", "setting": "[2]; System: Organoid (without transplantation into tissue)", "value": "18 ± 4.72", "unit": "µM"}
    ]},
    {"compound": "vitamin A", "values": [
      {"measurement": "potency of irinotecan in combination with predicted P-gp modulator", "setting": "[1]; ex vivo CRC platform, FIGS. 8B-8C, one-way ANOVA p<0.05", "value": "significantly increased the potency irinotecan"},
      {"measurement": "P-gp inhibition and drug uptake", "setting": "P-gp", "value": "inhibit P-gp and increase drug uptake"}
    ]},
    {"compound": "CS(=O)(=O)CCNCc1ccc(-c2ccc3ncnc(Nc4ccc(OCc5cccc(F)c5)c(Cl)c4)c3c2)o1", "note": "[Lapatinib, lapatinib]", "values": [
      {"measurement": "IC50", "setting": "[1]; Sus scrofa", "value": "0.499 ± 0.087", "unit": "µM"},
      {"measurement": "IC50", "setting": "[2]; Sus scrofa", "value": "0.39 ± 0.21", "unit": "µM"}
    ]}
  ]
}
